Patent US20140031388A1, “AKT INACTIVATION BY TOCOPHERYL DERIVATIVES” (priority 2012, published 2014)

Tests used:
[1] = target: T1, Akt1 Y38G PH domain (Homo sapiens, UniProt P31749, Y38G); assay: Surface plasmon resonance binding, Akt-Y38G PH domain mutant; settings: SPR, P < 0.05 vs. Akt
T1 construct: made in house
Text: The cDNA fragments corresponding to the putative PH domain sequences of PHLPP1 (+115 to +372), PDK1 (+1225 to +1671), Akt1 (+1 to +447) and ILK (+538 to +646) were PCR-amplified using the plasmids pcDNA-HA-PHLPP1, pWZL-Neo-Myr-FLAG-PDPK1, pcDNA-HA-PKB-T308D-S473D, and pCMV-SPORT-ILK (Addgene) as templates. The PCR products were then cloned into EcoRI/XhoI sites of the pGEX-4T1 expression vector (GE Healthcare Life Sciences) to generate four constructs (pGEX-4T1-PHLPP1, pGEX-4T1-PDPK1, pGEX-4T1-AKT1, pGEX-4T1-ILK) for the expression of GST-PH domain fusion proteins. The mutated Akt1 Y38G PH domain was generated from pGEX-4T1-AKT1 by site-directed mutagenesis using the QuikChange II XL Site-Directed Mutagenesis Kit (Agilent Technologies). The expression and purification of GST-PH domain fusion proteins were performed essentially as described previously. Thomas et al., Curr Biol 12, 1256 (2002). The purified PH domains were analyzed by SDS-PAGE using an overloaded gel with purities were estimated to be >95% using ImageJ software.
Binding experiments were performed using a Biacore T100 system (GE Healthcare, Piscataway, N.J.). The GST-PH domain fusion proteins were immobilized on a CM5 S Sensorchip using Biacore's Amine Coupling Kit to a level of 17,000 response units. […] Data were analyzed using Biacore T100 Evaluation Software.

[2] = system: phosphorylation of Ser473 in Akt; assay: Western blot of Akt phosphorylation at Ser473; format: cell-based; settings: LNCaP and PC-3 cells, Thr308 not altered
Protocol: (§1) Cells were exposed to the test agents in 10-cm dishes for 24 hours and then collected by scraping. The cell pellets were washed once with PBS, and then lysed at 4° C. over 30 min of incubation in a sodium dodecyl sulfate (SDS) lysis buffer containing 1% SDS, 50 mM Tris HCl (pH 8.1), 10 mM EDTA and […] protease inhibitor cocktail (Sigma-Aldrich). The cell debris was pelleted by centrifugation for 20 min at 14,000×g, and 1 μl of each supernatant was used for determination of protein concentration using a colorimetric bicinchoninic assay (Pierce, Rockford, Ill.). The remaining sample was added to equal volume of 2×SDS-polyacrylamide gel electrophoresis sample loading buffer (62.5 mM Tris-HCl, pH 6.8, 4% SDS, 5% β-mercaptoethanol, 20% glycerol, 0.1% bromophenol blue), followed by incubation in boiling water for 5 min. Equivalent amounts of total protein were resolved in SDS-polyacrylamide gels, and then transferred to nitrocellulose membranes using a semidry transfer cell. The transblotted membrane was washed twice with Tris-buffered saline containing 0.1% Tween 20 (TBST). After blocking with TBST containing 5% nonfat milk for 40 min, the membrane was incubated with the appropriate primary antibody (1:1000) in TBST-1% nonfat milk at 4° C. overnight. The membrane was then washed three times with TBST for a total of 15 min, followed by incubation with goat anti-rabbit or anti-mouse IgG-horseradish peroxidase conjugates (1:2000) for 1 hour at room temperature and four washes with TBST for a total of 1 hour. The immunoblots were visualized by enhanced chemiluminescence (GE Healthcare Life Sciences).

[3] = system: LNCaP and PC-3 cells; assay: MTT viability assay, one value stated for both prostate cancer lines; format: cell-based; settings: for IC50: Homo sapiens, MTT, serum-free medium, one value for LNCaP and PC-3, read-out: IC50, antiproliferative effect / viability; for potency relative to parent tocopherol: Ser-473-Akt dephosphorylation and viability of prostate cancer cells
Protocol: The prostate cancer cell lines, LNCaP and PC-3, were purchased from American Type Culture Collection (Manassas, Va.) and maintained in RPMI 1640 medium containing 10% heat-inactivated fetal bovine serum at 37° C. in a humidified incubator containing 5% CO2. The LNCaP-abl cells were a generous gift from Dr. Qianben Wang (The Ohio State University). Normal prostate epithelial cells were purchased from Lonza (Walkersville, Md.) and were cultured in the vendor-recommended defined prostate epithelial cell growth medium. For experiments, LNCaP cells were plated on poly-D-lysine-coated culture flasks at a density of 12,000 cells per cm^2 surface area for 24 hours, followed by treatment with test agents in serum-free RPMI 1640 medium. The α- and γ-tocopherols were purchased from Sigma-Aldrich (St. Louis, Mo.). The tocopherol derivatives, α- and γ-VE5, were synthesized by the inventors.
LNCaP cells were plated into poly-D-lysine-coated 96-well plates and PC-3 and LNCaP-abl cells into uncoated plates at the density of 5,000 cells per well in the presence of 10% FBS. Normal prostate epithelial cells were plated into uncoated plates at a density of 8,000 cells per well. Exposure to test agents in serum-free medium was initiated 24 hours later. After 24 hours of treatment, cells were incubated with MTT [3-(4,5-dimethylthiazol-2-yl)-2,5-diphenyl-2H-tetrazolium bromide] (TCI America; 0.5 mg/ml, final concentration) for an additional 2 hours. The medium was then removed from each well and replaced with DMSO to dissolve the reduced MTT dye for subsequent colorimetric measurement of absorbance at 595 nm. Cell viabilities are calculated as percentages of that in the corresponding vehicle-treated control group.

[4] = system: Akt membrane localization in LNCaP cells; assay: Immunocytochemistry, membrane localization of Akt; format: cell-based; settings: DMSO-treated cells 38.0±5.7%
Protocol: After 24 hours treatment, LNCaP cells were fixed in 4% formaldehyde for 20 min before permeabilization with 0.1% Triton X-100 in PBS at room temperature for 1 hour followed by incubation in 1% FBS (in PBS) for 1 hour. Cells were stained for endogenous PH domain-containing proteins (Akt, PHLPP, PDK-1, ILK, BTK) by incubation with specific antibodies (1:100), followed by incubation with the Alexa Fluor 555-conjugated goat anti-rabbit or Alexa Fluor 488-conjugated goat anti-mouse IgG (1:200) at room temperature for 2 hours. Both primary and secondary antibodies were diluted in incubation buffer containing 0.1% Triton X-100 and 0.2% bovine serum albumin in PBS. The cells were washed in PBS after each step and mounted using […] mounting medium supplemented with DAPI (Vector Laboratories Inc., Burlingame, Calif.). The slides were allowed to set for at least 4 hours before confocal images were acquired using a Zeiss LSM 510 inverted confocal laser scanning microscope operated with Zeiss LSM 510 software. Image analysis was performed using ImageJ (NIH) software.

[5] = system: mTORC2 (mTOR, rictor, SGK, PKCα); assay: Western blot of mTORC2 components and downstream targets; format: cell-based
Protocol: as §1

T1 sequence (P31749 5-108 Y38G limits assumed): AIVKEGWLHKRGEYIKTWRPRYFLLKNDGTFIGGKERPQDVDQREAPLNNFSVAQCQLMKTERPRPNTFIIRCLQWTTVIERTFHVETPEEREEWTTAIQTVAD

Kd [1]	IC50 [3]	SMILES	effect on phosphorylation of Akt at Ser473 [2]	cells with membrane localization of Akt [4]	abundance or phosphorylation of mTORC2 components and targets (mTOR, rictor, SGK, PKCα) [5]	potency relative to parent tocopherol [3]	potency relative to parent tocopherol ([3]; listed as a-VE5)
0.49 ± 0.02 µM	7 to 10 µM	Cc1c(O)cc2c(c1C)O[C@](C)(CCCC(C)C)CC2 [γ-VE5, (R)-2,7,8-trimethyl-2-(4-methylpentyl)-chroman-6-ol]	parallel reduction	71.4±2.5%	lack of changes	–	–
0.48 ± 0.13 µM	15 to 20 µM	Cc1c(C)c2c(c(C)c1O)CC[C@@](C)(CCCC(C)C)O2 [α-VE5, (R)-2,5,7,8-tetramethyl-2-(4-methylpentyl)-chroman-6-ol]	parallel reduction	65.0±8.9%	lack of changes	50 fold	10 fold
